Reference: patent publication US20260028348A1, “MODULATORS OF TNF-ALPHA ACTIVITY” (Forward Therapeutics, Inc., priority 2023, published 2026)
pIC50: −log10 of the molar value.

Tested on: HEK Blue™ TNFα reporter cells
Test: TNF-α Induced HEK Blue Cellular Assay
Type: cell-based
Details: TNF-α stimulated HEK Blue TNFα reporter cells, 24 hrs, secreted alkaline phosphatase (QUANTI-Blue, 620 nm)
Method: Test articles were diluted in DMSO and serially diluted into 384 well assay plate (Corning 3765), at final concentrations ranging from […] to 0.5 nM. HEK Blue™ TNFα reporter cells were added at a final density of 10,000 cell per well in assay media [DMEM (Gibco, cat #21063-029), 10% fetal bovine serum (ExcelBio, cat #FND500), 1% Penicillin-Streptomycin (Solarbio, cat #P1400-100]. TNF-α (R&D 210-TA-020/CF) was then added to the assay plate at a final concentration of […]. This plate was then incubated for 24 hrs at 37° C. and 5% CO2. Secreted alkaline phosphatase expression was then measured using QUANTI-Blue™(Invivogen), according to manufacturer instructions and read on an Envision microplate reader at 620 nm.
Inhibition data for test compound over a range of concentration was plotted as percentage inhibition of the test compound (100%=maximum inhibition). IC50 values were determined after correcting for background [(sample read-mean of low control)/(mean of high control-mean of low control)] whereby the low control is DMSO without stimulation and high control is DMSO with stimulation. The IC50 is defined as the concentration of test compound which produces […] and was quantified using the 4 parameter logistic equation to fit the data.

Compound | pIC50
[2H]C([2H])([2H])N1C(=O)c2cccc(OC(F)F)c2[C@H]2C[C@@H]1c1nc3ccc(-c4cnc5c(c4)OCC[C@@H]5N)cc3n12 [Example 30, (7R,14R)-11-((S)-4-amino-3,4-dihydro-2H-pyrano[3,2-b]pyridin-7-yl)-1-(difluoromethoxy)-6-(methyl-d3)-6,7-dihydro-7,14-methanobenzo[f]benzo[4,5]imidazo[1,2-a][1,4]diazocin-5(14H)-one] | > 7.00
CN1C(=O)c2cccc(OC(F)F)c2[C@H]2C[C@@H]1c1nc3ccc(-c4ccc5c(c4)NC(=O)C5(C)N)cc3n12 (stereo partly drawn) [Example 31, (7R,14R)-11-(3-amino-3-methyl-2-oxoindolin-6-yl)-1-(difluoromethoxy)-6-methyl-6,7-dihydro-7,14-methanobenzo[f]benzo[4,5]imidazo[1,2-a][1,4]diazocin-5(14H)-one] | > 7.00
[2H]C([2H])([2H])N1C(=O)c2cccc(OC(F)F)c2[C@H]2C[C@@H]1c1nc3ccc(-c4cnc5c(c4)OCC5(C)O)cc3n12 (stereo partly drawn) [Example 44, (7R,14R)-1-(difluoromethoxy)-11-(3-hydroxy-3-methyl-2,3-dihydrofuro[3,2-b]pyridin-6-yl)-6-(methyl-d3)-6,7-dihydro-7,14-methanobenzo[f]benzo[4,5]imidazo[1,2-a][1,4]diazocin-5(14H)-one] | > 7.00
[2H]C([2H])([2H])N1C(=O)c2cccc(OC(F)F)c2[C@H]2C[C@@H]1c1nc3ccc(-c4cnc5c(c4)COCC5(C)N)cc3n12 (stereo partly drawn) [Example 45, (7R,14R)-11-(8-amino-8-methyl-7,8-dihydro-5H-pyrano[4,3-b]pyridin-3-yl)-1-(difluoromethoxy)-6-(methyl-d3)-6,7-dihydro-7,14-methanobenzo[f]benzo[4,5]imidazo[1,2-a][1,4]diazocin-5(14H)-one] | 6.00 to 7.00
[2H]C([2H])([2H])N1C(=O)c2cccc(OC(F)F)c2[C@H]2C[C@@H]1c1nc3ccc(-c4cnc5c(c4)OCCC5O)cc3n12 (stereo partly drawn) [Example 48, (7R,14R)-1-(difluoromethoxy)-11-(4-hydroxy-3,4-dihydro-2H-pyrano[3,2-b]pyridin-7-yl)-6-(methyl-d3)-6,7-dihydro-7,14-methanobenzo[f]benzo[4,5]imidazo[1,2-a][1,4]diazocin-5(14H)-one] | > 7.00
